Results taken from patent US7807678B2, “Peptidomimetics of biologically active metallopeptides” (Palatin Technologies, Inc., priority 2001, dated 2010).
Like-named read-outs stand apart in the source and are kept apart here. Non-standard residues stand in square brackets, D forms with d. Residues, ends and D or L forms follow the SMILES beside them. *: point of attachment. Hyp = O=C(O)[C@@H]1C[C@@H](O)CN1; Nle = CCCC[C@H](N)C(=O)O; NH(CH2)3NH2 = NCCCN*; Bn = c1ccc(C*)cc1

How the values were obtained:
[1] = biological target: T1, MC1-R (B-16 mouse melanoma cells) (Mus musculus, UniProt Q01727); assay: cAMP assay for agonist/antagonist status, MC1-R; assay type: cell-based
T1 construct: B-16 mouse melanoma cells (containing MC1-R); endogenous in cells; host or cells: B-16 mouse melanoma cells
T1 sequence (Q01727 whole entry): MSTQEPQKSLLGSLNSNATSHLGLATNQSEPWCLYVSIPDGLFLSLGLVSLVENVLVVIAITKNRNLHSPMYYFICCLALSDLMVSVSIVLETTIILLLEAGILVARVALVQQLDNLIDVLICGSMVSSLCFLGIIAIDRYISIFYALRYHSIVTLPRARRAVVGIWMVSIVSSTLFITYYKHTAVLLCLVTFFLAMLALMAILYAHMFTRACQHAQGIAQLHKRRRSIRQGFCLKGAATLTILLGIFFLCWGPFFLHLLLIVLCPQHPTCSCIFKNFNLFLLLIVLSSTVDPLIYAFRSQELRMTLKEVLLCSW
Method: (§1) The Ki (nM) of certain peptidomimetics were determined, as was the agonist/antagonist status with respect to MC4-R, Functional evaluation of compounds at melanocortin receptors was performed by measuring the accumulation of intracellular cAMP in HEK-293 cells expressing MC3-R, MC4-R or MC5-R, and in B-16 mouse melanoma cells (containing MC1-R). Antagonistic activity was determined by measuring the inhibition of α-MSH-induced cAMP levels following exposure to the compounds. Cells, suspended in Earle's Balanced Salt Solution containing 10 mM HEPES, pH 7.5, 5 mM MgCl2, 1 mM glutamine, 0.1% albumin and 0.6 mM 3-isobutyl-1-methyl-xanthine, a phosphodiesterase inhibitor, were plated in 96 well plates at a density of 0.5×10^5 cells per well. Cells were incubated with the test compounds in the presence or absence of α-MSH for 1 hour at 37° C. cAMP levels were measured by EIA (Amersham) in the cell lysates. Data analysis and EC50 values were determined using nonlinear regression analysis with Prism Graph-Pad software.

[2] = biological target: T1, MC1-R (B-16 mouse melanoma cells); assay: Competitive inhibition binding assay, 125I-NDP-α-MSH, MC1-R; conditions: for Inhibition at 1 μM MC1-R: 1 μM compound, inhibition of 125I-NDP-α-MSH binding, mean of triplicates, results less than 0% reported as 0%
Method in brief: (§2)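 Membranes from hMC3-R, hMC4-R or hMC5-R cells, or B-16 mouse melanoma cells (MC1-R), were incubated 90 min at room temperature with 0.4 nM 125I-NDP-α-MSH in HEPES pH 7.2 with Mg2+/Ca2+/K+, and test compound generally at 1 μM. Filter-bound radioactivity was gamma counted. Specific binding was defined with 1 μM α-MSH; triplicate means.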

MC3-R = MC3-R (Homo sapiens, UniProt P41968); assay: Competitive inhibition binding assay, 125I-NDP-α-MSH, MC3-R; set-up: expressed in transfected cells; conditions: for Inhibition at 1 μM MC3-R: 1 μM compound, inhibition of 125I-NDP-α-MSH binding, mean of triplicates, results less than 0% reported as 0%
Chain of MC3-R (P41968 whole entry): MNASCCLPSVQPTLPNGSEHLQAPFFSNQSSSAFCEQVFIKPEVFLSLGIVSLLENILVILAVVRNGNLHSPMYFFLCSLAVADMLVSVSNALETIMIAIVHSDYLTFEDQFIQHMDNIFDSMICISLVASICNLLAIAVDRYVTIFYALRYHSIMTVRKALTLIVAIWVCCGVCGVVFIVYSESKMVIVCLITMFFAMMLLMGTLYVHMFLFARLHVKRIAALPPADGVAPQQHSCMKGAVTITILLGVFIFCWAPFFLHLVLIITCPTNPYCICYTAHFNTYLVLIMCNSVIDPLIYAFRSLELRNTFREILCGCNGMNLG
Method in brief: as §2

MC5-R = MC5-R (Homo sapiens, UniProt P33032); assay: Competitive inhibition binding assay, 125I-NDP-α-MSH, MC5-R; set-up: expressed in transfected cells; conditions: for Inhibition at 1 μM MC5-R: 1 μM compound, inhibition of 125I-NDP-α-MSH binding, mean of triplicates, results less than 0% reported as 0%
Chain of MC5-R (P33032 whole entry): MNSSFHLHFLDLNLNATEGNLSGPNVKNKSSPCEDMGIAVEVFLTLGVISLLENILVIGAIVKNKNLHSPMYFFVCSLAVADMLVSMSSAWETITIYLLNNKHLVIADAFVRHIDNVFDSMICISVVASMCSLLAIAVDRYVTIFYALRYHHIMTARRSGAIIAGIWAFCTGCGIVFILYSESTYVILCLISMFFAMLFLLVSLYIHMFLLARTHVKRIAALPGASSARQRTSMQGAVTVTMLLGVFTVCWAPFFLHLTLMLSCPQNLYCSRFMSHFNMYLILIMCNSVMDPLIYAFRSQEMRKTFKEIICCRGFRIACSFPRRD
Method in brief: as §2

MC4-R (HEK-293 cells) = biological target: T2, MC4-R (HEK-293 cells) (Homo sapiens, UniProt P32245); assay: cAMP assay for agonist/antagonist status, MC4-R; assay type: cell-based
T2 construct: expressed in transfected cells; host or cells: HEK-293
T2 sequence (P32245 whole entry): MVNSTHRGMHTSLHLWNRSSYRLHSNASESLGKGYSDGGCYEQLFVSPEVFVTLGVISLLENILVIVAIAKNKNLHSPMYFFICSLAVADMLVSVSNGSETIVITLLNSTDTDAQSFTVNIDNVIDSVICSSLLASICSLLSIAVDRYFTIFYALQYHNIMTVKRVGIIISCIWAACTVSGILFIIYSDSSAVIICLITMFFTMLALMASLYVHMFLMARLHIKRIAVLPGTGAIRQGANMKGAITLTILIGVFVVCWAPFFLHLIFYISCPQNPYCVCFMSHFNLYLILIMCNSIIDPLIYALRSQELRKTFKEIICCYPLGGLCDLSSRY
Method: as §1

MC5-R (HEK-293 cells) = biological target: T3, MC5-R (HEK-293 cells) (Homo sapiens, UniProt P33032); assay: cAMP assay for agonist/antagonist status, MC5-R; assay type: cell-based
T3 construct: expressed in transfected cells; host or cells: HEK-293
T3 sequence (P33032 whole entry): as the sequence (P33032 whole entry) above
Method: as §1

MC4-R = MC4-R (Homo sapiens, UniProt P32245); assay: Competitive inhibition binding assay, 125I-NDP-α-MSH, MC4-R; set-up: expressed in transfected cells; conditions: for Inhibition at 1 μM MC4-R: 1 μM compound, inhibition of 125I-NDP-α-MSH binding, mean of triplicates, results less than 0% reported as 0%
Chain of MC4-R (P32245 whole entry): as the sequence (P32245 whole entry) above
Method in brief: as §2

Row | SMILES | agonist/antagonist status as to MC1-R [1] | Inhibition at 1 μM MC1-R [2] [%] | Inhibition at 1 μM MC3-R (MC3-R) [%] | Inhibition at 1 μM MC5-R (MC5-R) [%] | agonist/antagonist status as to MC4-R (MC4-R (HEK-293 cells)) | agonist/antagonist status as to MC5-R (MC5-R (HEK-293 cells)) | Inhibition at 1 μM MC4-R (MC4-R) [%] | agonist/antagonist status as to MC1-R ([1]; listed as Compound 1) | inhibition at 1 µM [2] [%] | inhibition at 1 µM (MC3-R) [%] | inhibition at 1 µM (MC5-R) [%] | inhibition at 1 µM (MC4-R) [%]
1 | NCCCC[C@H]1C(=O)N(CCc2ccc3ccccc3c2)CCN1C(=O)[C@@H](Cc1ccc(Cl)cc1Cl)NC(=O)[C@@H](N)COCc1ccccc1 [Example 22] | agonist | 40 | 47 | 76 | agonist | agonist | 98 |  |  |  |  | 
2 | NCCCC[C@H]1C(=O)N(CCc2ccc3ccccc3c2)CCN1C(=O)[C@@H](Cc1ccc(Cl)cc1Cl)NC(=O)[C@@H]1Cc2ccccc2CN1 [Example 23] | agonist | 63 | 62 | 80 | agonist | agonist | 100 |  |  |  |  | 
3 | C[C@@H](OCc1ccccc1)[C@H](N)C(=O)N[C@H](Cc1ccc(Cl)cc1Cl)C(=O)N1CCN(CCc2ccc3ccccc3c2)C(=O)[C@@H]1CCCCN [Example 24] | agonist | 30 | 34 | 78 | agonist | agonist | 99 |  |  |  |  | 
4 | NCCCC[C@H]1C(=O)N(CCc2ccc3ccccc3c2)CCN1C(=O)[C@@H](Cc1ccc(Cl)cc1Cl)NC(=O)[C@@H]1C[C@@H](OCc2ccccc2)CN1 [Example 25] | agonist | 21 | 61 | 83 | agonist | agonist | 100 |  |  |  |  | 
5 | CCCC[C@H](NC(C)=O)C(=O)N[C@@H](C)C(=O)N[C@@H](Cc1cnc[nH]1)C(=O)N[C@H](Cc1ccccc1)C(=O)N1C[C@H](OCc2ccccc2)C[C@H]1C(=O)NCCCN [Example 133] (Ac-[Nle]AH[dF][Hyp](Bn)-{NH(CH2)3NH2}) | agonist | 91 | 13 | 25 |  |  | 8 | full agonistic activity |  |  |  | 
6 | NCCCNC(=O)[C@@H]1C[C@@H](OCc2ccccc2)CN1C(=O)[C@@H](Cc1ccccc1)NC(=O)C1(N)CCCCC1 [Example 162] |  | 0 | 41 | 0 |  |  | 8 |  |  |  |  | 
7 | NCCCNC(=O)[C@@H]1C[C@@H](OCc2ccccc2)CN1C(=O)[C@@H](Cc1ccccc1)NC(=O)C1(N)Cc2ccccc2C1 [Example 163] |  | 0 | 16 | 0 |  |  | 15 |  |  |  |  | 
8 | NCCCNC(=O)[C@@H]1C[C@@H](OCc2ccccc2)CN1C(=O)[C@@H](Cc1ccccc1)NC(=O)[C@@H](N)Cc1ccc2ccccc2c1 [Example 164] |  | 0 | 0 | 1 |  |  | 13 |  |  |  |  | 
9 | NCCCNC(=O)[C@@H]1C[C@@H](OCc2ccccc2)CN1C(=O)[C@@H](Cc1ccccc1)NC(=O)[C@@H](N)Cc1cccc2ccccc12 [Example 165] |  | 0 | 2 | 0 |  |  | 16 |  |  |  |  | 
10 | NCCCNC(=O)[C@@H]1C[C@@H](OCc2ccccc2)CN1C(=O)[C@@H](Cc1ccccc1)NC(=O)[C@H](N)Cc1cccc2ccccc12 [Example 166] |  | 0 | 13 | 0 |  |  | 8 |  |  |  |  | 
11 | [2H]N1CCCC1C(=O)NC(Cc1ccccc1)C(=O)N1CC(OCc2ccccc2)CC1C(=O)NCCCN (stereo not drawn) [Example 167] |  | 22 | 0 | 5 |  |  | 8 |  |  |  |  | 
12 | NCCCNC(=O)[C@@H]1C[C@@H](OCc2ccccc2)CN1C(=O)[C@@H](Cc1ccccc1)NC(=O)C1CCC(CN)CC1 (stereo partly drawn) [Example 168] |  | 18 | 0 | 0 |  |  | 10 |  |  |  |  | 
13 | NCCCNC(=O)[C@@H]1C[C@@H](OCc2ccccc2)CN1C(=O)[C@@H](Cc1ccccc1)NC(=O)c1ccc(CN)cc1 [Example 169] |  | 12 | 0 | 0 |  |  | 6 |  |  |  |  | 
14 | NCCCNC(=O)[C@@H]1C[C@@H](OCc2ccccc2)CN1C(=O)[C@@H](Cc1ccccc1)NC(=O)[C@@H](N)Cc1ccc(-c2ccccc2)cc1 [Example 171] |  | 11 | 0 | 25 |  |  | 9 |  |  |  |  | 
15 | NCCCNC(=O)[C@@H]1C[C@@H](OCc2ccccc2)CN1C(=O)[C@@H](Cc1ccccc1)NC(=O)[C@@H]1Cc2ccccc2N1 [Example 172] |  | 14 | 0 | 0 |  |  | 4 |  |  |  |  | 
16 | NCCCNC(=O)[C@@H]1C[C@@H](OCc2ccccc2)CN1C(=O)[C@@H](Cc1ccccc1)NC(=O)[C@H](N)C(c1ccccc1)c1ccccc1 [Example 173] |  | 7 | 13 | 0 |  |  | 7 |  |  |  |  | 
17 | NCCCNC(=O)[C@@H]1C[C@@H](OCc2ccccc2)CN1C(=O)[C@@H](Cc1ccccc1)NC(=O)[C@@H](N)C1Cc2ccccc2C1 [Example 174] |  | 10 | 21 | 2 |  |  | 15 |  |  |  |  | 
18 | NCCCNC(=O)[C@@H]1C[C@@H](OCc2ccccc2)CN1C(=O)[C@@H](Cc1ccccc1)NC(=O)[C@H](N)C1Cc2ccccc2C1 [Example 175] |  | 3 | 0 | 0 |  |  | 19 |  |  |  |  | 
19 | CC(O)C(N)C(=O)NC(Cc1ccccc1)C(=O)N1CC(OCc2ccccc2)CC1C(=O)NCCCN (stereo not drawn) [Example 176] |  | 18 | 0 | 8 |  |  | 8 |  |  |  |  | 
20 | NCCCNC(=O)C1CC(OCc2ccccc2)CN1C(=O)C(Cc1ccccc1)NC(=O)C1CCC(=O)N1C(=O)OCc1ccccc1 (stereo not drawn) [Example 177] |  | 2 | 0 | 0 |  |  | 7 |  |  |  |  | 
21 | CCCCCCC(=O)NC(COCc1ccccc1)C(=O)NC(Cc1ccc2ccccc2c1)C(=O)N1CC2CC(Oc3ccc4ccccc4c3)CN2C(=O)C1CCCCN (stereo not drawn) [Example 178] |  | 33 | 0 | 0 |  |  | 0 |  |  |  |  | 
22 | [2H]N[C@@H](Cc1cnc[nH]1)C(=O)N[C@@H](Cc1ccccc1)C(=O)N1CC2C[C@H](Oc3ccc4ccccc4c3)CN2C(=O)[C@@H]1CCCCN (stereo partly drawn) [Example 179] |  |  |  |  |  |  |  |  | 0 | 0 | 0 | 0
